Assay results taken from ChEMBL document CHEMBL1201862, “PubChem BioAssay data set” (2004).
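All cell lines were grown in 96-well plates and treated with compound for 48 hours. GI50 = concentration required for 50% inhibition of growth.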 Calls of active or inactive are those of the source. Cut-off read from the data, not from the text of the source: active = GI50 up to about 1.1 µM and inactive = higher.

Legend:
Assay in all cases: inhibition of tumour cell growth, NCI panel, 48 h
786-0 = system: 786-0
ACHN = system: ACHN
COLO 205 = system: COLO 205
DU-145 = system: DU-145
EKVX = system: EKVX
HCT-15 = system: HCT-15
KM12 = system: KM12
MDA-MB-435 = system: MDA-MB-435
Malme-3M = system: Malme-3M
NCI/ADR-RES = system: NCI/ADR-RES
RPMI-8226 = system: RPMI-8226
SF-268 = system: SF-268
SK-MEL-2 = system: SK-MEL-2
SR = system: SR
SW-620 = system: SW-620
U-251 = system: U-251
UACC-257 = system: UACC-257
UO-31 = system: UO-31
NCI-H226 = system: NCI-H226

SMILES | GI50 (786-0) | GI50 (ACHN) | GI50 (COLO 205) | GI50 (DU-145) | GI50 (EKVX) | GI50 (HCT-15) [µM] | GI50 (KM12) | GI50 (MDA-MB-435) | GI50 (Malme-3M) | GI50 (NCI/ADR-RES) | GI50 (RPMI-8226) | GI50 (SF-268) | GI50 (SK-MEL-2) | GI50 (SR) | GI50 (SW-620) | GI50 (U-251) | GI50 (UACC-257) | GI50 (UO-31) | GI50 (NCI-H226)
CC(C)OC(=O)NNc1c(Cl)cc(Cl)cc1Cl | > 100 µM (inactive) | > 100 µM (inactive) | 49.1 µM (inactive) | > 100 µM (inactive) | 31.6 µM (inactive) | 58.5 | 71.6 µM (inactive) | 82.8 µM (inactive) | 20.4 µM (inactive) | 67.9 µM (inactive) | 43.4 µM (inactive) | 39.1 µM (inactive) | 55.6 µM (inactive) | 55.3 µM (inactive) | > 100 µM (inactive) | > 100 µM (inactive) | 33.7 µM (inactive) | 55.8 µM (inactive) | –
COC(=O)C(C(=O)C(=O)Nc1ccccc1C#N)c1nc2ccc([N+](=O)[O-])cc2nc1O (centres undefined) | > 100 µM (inactive) | > 100 µM (inactive) | > 100 µM (inactive) | > 100 µM (inactive) | 78 µM (inactive) | > 100 | 37.8 µM (inactive) | > 100 µM (inactive) | > 100 µM (inactive) | 92.5 µM (inactive) | – | > 100 µM (inactive) | > 100 µM (inactive) | > 100 µM (inactive) | > 100 µM (inactive) | > 100 µM (inactive) | > 100 µM (inactive) | > 100 µM (inactive) | > 100 µM (inactive)
O=C1C(Cl)C(c2cccc(Cl)c2)N1c1ccc(-n2c(S)nc3ccccc3c2=O)cc1 (centres undefined) | 19 µM (inactive) | 18.7 µM (inactive) | 24.5 µM (inactive) | 35.2 µM (inactive) | 32.1 µM (inactive) | 1.02 | 28.4 µM (inactive) | 15.7 µM (inactive) | 40.2 µM (inactive) | 25.8 µM (inactive) | 17.9 µM (inactive) | 12.6 µM (inactive) | – | 10.7 µM (inactive) | 29.6 µM (inactive) | 13.3 µM (inactive) | 26.9 µM (inactive) | 20 µM (inactive) | 25.4 µM (inactive)
C[C@@]1(O)C2C3CC4C5C3C1[C@](O)(C42)[C@H]5Br (some centres undefined) | > 100 µM (inactive) | > 100 µM (inactive) | > 100 µM (inactive) | > 100 µM (inactive) | > 100 µM (inactive) | > 100 | > 100 µM (inactive) | > 100 µM (inactive) | – | > 100 µM (inactive) | – | > 100 µM (inactive) | > 100 µM (inactive) | > 100 µM (inactive) | > 100 µM (inactive) | > 100 µM (inactive) | > 100 µM (inactive) | > 100 µM (inactive) | –
CCn1c(-c2ccccc2)cs/c1=N\C(P(=O)(O)O)P(=O)(O)O | > 100 µM (inactive) | > 100 µM (inactive) | > 100 µM (inactive) | > 100 µM (inactive) | > 100 µM (inactive) | > 100 | > 100 µM (inactive) | > 100 µM (inactive) | > 100 µM (inactive) | > 100 µM (inactive) | > 100 µM (inactive) | > 100 µM (inactive) | – | > 100 µM (inactive) | > 100 µM (inactive) | > 100 µM (inactive) | > 100 µM (inactive) | > 100 µM (inactive) | > 100 µM (inactive)
CN(C)/C=N/[C@@H](C(=O)O)c1ccccc1 | > 100 µM (inactive) | > 100 µM (inactive) | > 100 µM (inactive) | > 100 µM (inactive) | > 100 µM (inactive) | > 100 | – | > 100 µM (inactive) | > 100 µM (inactive) | > 100 µM (inactive) | > 100 µM (inactive) | > 100 µM (inactive) | – | > 100 µM (inactive) | > 100 µM (inactive) | > 100 µM (inactive) | > 100 µM (inactive) | > 100 µM (inactive) | > 100 µM (inactive)
N#Cc1ccc(-c2nc3c(N)ncnc3o2)cc1 | 63.8 µM (inactive) | 75 µM (inactive) | > 100 µM (inactive) | > 100 µM (inactive) | > 100 µM (inactive) | > 100 | > 100 µM (inactive) | > 100 µM (inactive) | – | > 100 µM (inactive) | > 100 µM (inactive) | > 100 µM (inactive) | > 100 µM (inactive) | > 100 µM (inactive) | > 100 µM (inactive) | – | > 100 µM (inactive) | > 100 µM (inactive) | > 100 µM (inactive)
N#CCCC1(CCC#N)CCCCCCC(CCC#N)(CCC#N)C(O)C1O (centres undefined) | > 100 µM (inactive) | > 100 µM (inactive) | 41.9 µM (inactive) | > 100 µM (inactive) | – | > 100 | > 100 µM (inactive) | > 100 µM (inactive) | > 100 µM (inactive) | > 100 µM (inactive) | – | > 100 µM (inactive) | > 100 µM (inactive) | 65.3 µM (inactive) | > 100 µM (inactive) | > 100 µM (inactive) | > 100 µM (inactive) | > 100 µM (inactive) | 53.8 µM (inactive)
